Test results published in ChEMBL document CHEMBL1201862, “PubChem BioAssay data set” (2004).
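Step 1: Grow cells in 96-well plates. Step 2: Expose to compound for 48 hours at 5 concentrations. Step 3: Interpolate endpoints linearly; if unreached, use highest concentration. GI50: concentration for 50% inhibition of growth.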 Activity calls are given as the source filed them. No stated cut-off is given here; in the data, active = GI50 up to about 1.1 µM and inactive = higher.

Key:
Assay in all cases: NCI tumour cell line growth inhibition, 48 h
[1] = system: A498
[2] = system: CAKI-1
[3] = system: DLD-1
[4] = system: HL-60
[5] = system: HOP-62
[6] = system: M14
[7] = system: NCI-H23
[8] = system: OVCAR-4
[9] = system: RXF 393
[10] = system: SF-268
[11] = system: SF-295
[12] = system: SK-MEL-28
[13] = system: SK-MEL-2
[14] = system: SNB-19
[15] = system: SR
[16] = system: UACC-62
[17] = system: UO-31

Row | SMILES | GI50 [1] | GI50 [2] | GI50 [3] | GI50 [4] | GI50 [5] | GI50 [6] | GI50 [7] | GI50 [8] | GI50 [9] | GI50 [10] | GI50 [11] | GI50 [12] | GI50 [13] | GI50 [14] | GI50 [15] | GI50 [16] | GI50 [17]
1 | O=C1C/C(=C/c2ccc(/C=C3/CC(=O)N(c4cccc(Br)c4)C3=O)cc2)C(=O)N1c1cccc(Br)c1 | > 71 µM (inactive) | > 100 µM (inactive) | > 100 µM (inactive) | > 100 µM (inactive) | > 100 µM (inactive) | > 100 µM (inactive) | > 100 µM (inactive) | > 100 µM (inactive) | 30.1 µM (inactive) | > 100 µM (inactive) | 60.7 µM (inactive) | > 100 µM (inactive) | > 100 µM (inactive) | > 100 µM (inactive) | 97.3 µM (inactive) | > 100 µM (inactive) | > 100 µM (inactive)
2 | C/C=C/C=C/[C@H]1Cc2cc(O)cc(O)c2O1 | > 100 µM (inactive) | 58.9 µM (inactive) | 82 µM (inactive) | 26.1 µM (inactive) | > 100 µM (inactive) | 37.3 µM (inactive) | 51.5 µM (inactive) | 35 µM (inactive) | > 100 µM (inactive) | > 100 µM (inactive) | 57.3 µM (inactive) | > 100 µM (inactive) | > 100 µM (inactive) | 80.7 µM (inactive) | 78.5 µM (inactive) | 22.9 µM (inactive) | 29.4 µM (inactive)
3 | O=C1[C@H]2ON(c3ccccc3)C(c3ccc(Cl)cc3)[C@H]2C(=O)N1c1ccc(Cc2ccc(N3C(=O)[C@@H]4ON(c5ccccc5)C(c5ccc(Cl)cc5)[C@@H]4C3=O)cc2)cc1 (some centres not stated) | > 100 µM (inactive) | > 100 µM (inactive) | > 100 µM (inactive) | > 100 µM (inactive) | > 100 µM (inactive) | 18.7 µM (inactive) | > 100 µM (inactive) | > 100 µM (inactive) | > 100 µM (inactive) | > 100 µM (inactive) | > 100 µM (inactive) | > 100 µM (inactive) | > 100 µM (inactive) | > 100 µM (inactive) | > 100 µM (inactive) | > 100 µM (inactive) | > 100 µM (inactive)
4 | COc1ccc2[nH]c3c(c2c1)[C@H](C)C[C@@H]1C(=O)N(c2ccccc2)C(=O)[C@H]31 | 20.6 µM (inactive) | 33 µM (inactive) | 43.3 µM (inactive) | > 100 µM (inactive) | 24 µM (inactive) | 35.6 µM (inactive) | 22.3 µM (inactive) | 20.7 µM (inactive) | 29.6 µM (inactive) | 26.6 µM (inactive) | 26 µM (inactive) | > 100 µM (inactive) | 42.7 µM (inactive) | 29.4 µM (inactive) | 26.2 µM (inactive) | 44.1 µM (inactive) | 36.2 µM (inactive)
5 | O=C(/C=C/c1ccccc1)c1ccc(NCc2nc3ccccc3[nH]2)cc1 | 5.24 µM (inactive) | 10.1 µM (inactive) | 4.27 µM (inactive) | 2.33 µM (inactive) | 11.2 µM (inactive) | 9.02 µM (inactive) | 2.55 µM (inactive) | 9.23 µM (inactive) | 5.22 µM (inactive) | 6.44 µM (inactive) | 3.48 µM (inactive) | 18 µM (inactive) | 12.7 µM (inactive) | 6.1 µM (inactive) | 16.1 µM (inactive) | 8.05 µM (inactive) | 7.21 µM (inactive)
6 | CCOC(=O)NC(=O)c1cn(CCCOC(=O)CCCCCCCCCCC(=O)OCCCn2cc(C(=O)NC(=O)OCC)c(=O)n(C)c2=O)c(=O)n(C)c1=O | > 100 µM (inactive) | > 100 µM (inactive) | > 100 µM (inactive) | > 100 µM (inactive) | > 100 µM (inactive) | > 100 µM (inactive) | > 100 µM (inactive) | > 100 µM (inactive) | > 100 µM (inactive) | > 100 µM (inactive) | > 100 µM (inactive) | > 100 µM (inactive) | > 100 µM (inactive) | > 100 µM (inactive) | > 100 µM (inactive) | > 100 µM (inactive) | > 100 µM (inactive)
7 | Cn1c2cc(O)cc(O)c2c(=O)c2c([N+](=O)[O-])cccc21 | > 100 µM (inactive) | > 100 µM (inactive) | > 100 µM (inactive) | > 100 µM (inactive) | > 100 µM (inactive) | > 100 µM (inactive) | > 100 µM (inactive) | > 100 µM (inactive) | > 100 µM (inactive) | > 100 µM (inactive) | > 100 µM (inactive) | > 100 µM (inactive) | > 100 µM (inactive) | > 100 µM (inactive) | > 100 µM (inactive) | > 100 µM (inactive) | > 100 µM (inactive)
8 | COc1ccc(/C=C2\CCC(CCN(C)C)(C3=CCCC3)C2=O)cc1Br (configuration not stated) | 8.95 µM (inactive) | 8.81 µM (inactive) | 5.13 µM (inactive) | 2.52 µM (inactive) | 14.5 µM (inactive) | 1.79 µM (inactive) | 13.9 µM (inactive) | 3.68 µM (inactive) | 2.22 µM (inactive) | 7.03 µM (inactive) | 3.85 µM (inactive) | 2.76 µM (inactive) | 10 µM (inactive) | 9.44 µM (inactive) | 1.51 µM (inactive) |  | 5.35 µM (inactive)
9 | [O-][S+]1c2ccccc2N=C(c2cccc3ccccc23)CC1c1cccc2ccccc12 (configuration not stated) | 21.7 µM (inactive) | 24.8 µM (inactive) | 18.4 µM (inactive) | 10.8 µM (inactive) | 34.2 µM (inactive) | 14.5 µM (inactive) | 20.3 µM (inactive) | 12.8 µM (inactive) | 22.6 µM (inactive) | 22.2 µM (inactive) | 32.1 µM (inactive) | 0.91 µM (active) | 17.5 µM (inactive) | 21 µM (inactive) | 24.1 µM (inactive) | 12.6 µM (inactive) | 23.9 µM (inactive)
